Values joined by “and” are separate entries in the source; they are usually repeats but may differ in a detail not shown here. Equal entries are not always repeated. Where two headings read alike, the source gives them in different places.
Experiments:
[1] = system: ex vivo T. gondii ME49-FLuc bradyzoites from tissue cysts of chronically infected mice; assay: Ex vivo bradyzoite treatment assay (plaque assay); type: cell-based, Toxoplasma gondii; settings: for growth of ex vivo bradyzoites at EC50: constant treatment, vs DMSO
Protocol: The brains from CBA/J mice chronically infected with the ME49-FLuc strain were harvested, homogenized, and tissue cysts isolated on Percoll gradients, as described previously[9],[27]. Following isolation, purified tissue cysts were treated with acid-pepsin solution ([…] sodium chloride (NaCl), 60 mM hydrochloric acid (HCl) and freshly made pepsin (0.1 mg/mL in 1xPBS) for 10 min at 37 °C. Following acid-pepsin treatment and addition of neutralization buffer (94 mM sodium carbonate (Na2CO3), liberated bradyzoites were equally distributed into 6-well plates with 5 mL culture media containing compounds or vehicle control (0.1–0.2% DMSO final concentration). Plates were incubated undisturbed for 12–14 days followed by fixation in 100% ethanol (ETOH) for 5 min at RT, rinsing with tap water, staining in 0.1% crystal violet solution for 10 min at RT, rinsing in water and air drying. Plaques were quantified on a Zeiss AxioObserver microscope equipped with a ×2.5 objective (Department of Molecular Microbiology Imaging Facility at the Washington University School of Medicine).

[2] = system: in vitro derived T. gondii ME49-FLuc bradyzoites; assay: Plaque assay of bradyzoites induced in vitro for 14 days; type: cell-based, Toxoplasma gondii; settings: Fig 5F, replicates
Protocol: To monitor the effects of compounds on more mature in vitro derived bradyzoites, ME49-Fluc tachyzoites were inoculated onto HFF monolayers grown in T25[2] flasks and bradyzoites were induced for 12 days in RPMI 1640 pH 8.2 at ambient CO2 and 37°C. Cultures were then treated with compounds at EC90 or 3XEC90 for another 2 days. At the end of 14 days, monolayers were scraped and passed through a 23 g needle to liberate cysts, followed by centrifugation (400 × g, 10 min, 4 °C). Pellets were resuspended with Pearce^TM streptavidin magnetic beads (Thermo Fisher) pre-coupled with biotinylated DBL (Vector laboratories) and incubated for 1 h at 4 °C. Beads were collected and washed twice using a magnetic stand, followed by treatment with 0.25 mg/ml trypsin for 10 min to liberate bradyzoites. Released bradyzoites were collected from the supernatant and counted using a hemocytometer. Bradyzoites were inoculated onto 6-well plates confluent with HFF monolayers and cultured for 14 days, followed by ethanol fixation and staining with 0.01% crystal violet. Plaques or foci of infection were imaged using an Axiovert 100 microscope equipped with an AxioCam color camera and analyzed by ImageJ.

[3] = system: blood-stage P. falciparum; settings: Fig 2A Tg_Pf_Cp EC50s; previously reported values, reference not visible in the shown part; cited from earlier work
[4] = system: in vitro induced T. gondii ME49-FLuc bradyzoite cysts; assay: In vitro bradyzoite growth assay, cyst size (3 d induction + 2 d treatment); type: cell-based, Toxoplasma gondii; settings: for Cyst size (individual cysts): area within cyst wall, measured in microns; for effect on cyst size: at the EC90 or 3xEC90, 2 days after 3 days induction
Protocol: To monitor the effects of compounds on early bradyzoite differentiation, ME49-Fluc tachyzoites were inoculated onto HFF monolayers grown on coverslips in 24-well plates and allowed infect during a 2 h incubation in 3% DMEM (DMEM containing glutamine (10 mM), gentamycin (10 μg/mL,) and 3% FBS) at 37°C, 5% CO2. The medium was replaced with RPMI 1640 pH 8.2 and cells were cultured in ambient CO2 at 37°C for 3 days to induce bradyzoites. […] Samples were fixed and stained using biotinylated Dolichos biflorus lectin (DBL) (Vector Laboratories (#B-1035-5) […]) followed by Alexa Fluor 488 streptavidin (Thermo Fischer (#S11223) 1:1,000 dilution) and mouse mAb 8.25.8 anti-BAG1 (from Dr. Louis Wiess) (1:1,100)[56] followed by goat anti-mouse IgG conjugated to Alexa Fluor 568 (Thermo Fischer (#A-1104) 1:1,000). Samples were analyzed using a Zeiss AxioObserver Z1 equipped with Colibri LED illumination using a 40x EC Plan-Neofluar objective (N.A. 1.3) and images were captured using an ORCA-ER digital camera operated using ZEN v3.3 (Carl Zeiss). Cyst size was determined by measuring the area defined by the perimeter of the cyst wall as measured in microns.

[5] = system: T. gondii tachyzoites (type II ME49-FLuc); assay: Luciferase-based tachyzoite growth assay; type: cell-based, Toxoplasma gondii; set-up: EC50 log inhib vs normalized response: unit: µM
Protocol: All assays were carried out in a 96-well plate format containing confluent HFF monolayers to support parasite growth. To avoid edge effects, only the inner 60 wells of each plate were used. All compounds described were provided by the Broad Institute as 10 mM stocks in 100% DMSO and stored at −80 °C prior to use. Pyrimethamine (Sigma-Aldrich) was prepared as 5 mM stock in 100% DMSO and stored at −20 °C prior to use.
All statistical analyses were conducted using Prism 9 (GraphPad Software, Inc.). Dose–response inhibition curves for parasite and host cell toxicity screens (EC50 values) were generated using (Log(inhibitor) vs. normalized response—Variable slope) function. […] For multiple comparisons, two-way ANOVA analysis function using either Sidák’s multiple comparisons test or Dunnett’s multiple comparisons test was applied as indicated.

[6] = Constant treatment, Fig 5H top 4, replicates
[7] = Washout, Fig 5H top 4, replicates
[8] = Fig 1A rank order, T. gondii growth
[9] = Toxoplasma gondii, ME49-FLuc, 10-point dose-response, two biological replicates, read-out: EC50, T. gondii tachyzoite growth
[10] = Toxoplasma gondii, Table 2, read-out: T. gondii EC50
[11] = Toxoplasma gondii, Table S1, ME49-FLuc tachyzoites, read-out: T. gondii EC50
[12] = Toxoplasma gondii, Fig 2A Tg_Pf_Cp EC50s, read-out: EC50 T. gondii
[13] = Toxoplasma gondii, from 10-dose-response curve of Fig. 1, read-out: EC90, tachyzoite growth

Row | Structure (SMILES) | Ex vivo bradyzoite plaques, normalised to DMSO = 100 [1, 6] | Ex vivo bradyzoite plaques, normalised to DMSO = 100 [1, 7] | Plaque numbers ([2]; 3xEC90) | Plaque numbers ([2]; EC90) | EC50 [3] [nM] | Cyst size (individual cysts) ([4]; 3XEC90, 2 days) | Cyst size (individual cysts) ([4]; EC90, 2 days) | effect on cyst size [4] | EC50 log inhib vs normalized response [5, 8] | EC50 [5, 9] [nM] | EC50 [5, 10] [nM] | EC50 [5, 11] [nM] | EC50 [5, 12] [nM] | growth of ex vivo bradyzoites at EC50 ([1]; EC50 concentration) | EC90 [5, 13] [nM] | also measured
1 | CN(C[C@@H]1[C@H](c2ccc(C#Cc3ccccc3)cc2)[C@@H]2CN(C(=O)Nc3ccc(OC4CC4)cc3)CCCCN12)S(C)(=O)=O [BRD2987] | 0.5 and 0.7 and 3.9 | 6.522 and 15.2 and 18.2 | 0 and 5 | 0 | 2 | 210 and 276.2 and 29.32 and 152.5 and 78.3 and 34.32 and 25.15 and 91.33 and 112.7 and 36.9 and 64.42 and 29.43 and 70.1 and 40.53 and 119.9 and 26.89 and 53.28 and 150.6 and 151.3 and 93.74 | 236.6 and 67.46 and 53.54 and 238 and 123.3 and 64.95 and 39.29 and 138.8 and 102.4 and 187.5 and 285.6 and 103.1 and 283.5 and 243.7 and 89.72 and 170.5 and 68.94 and 144.9 and 116.2 and 59.27 | significantly diminished cyst size | 0.01849 | 18.5 | 19 | 18 |  |  |  | EC50 ([5]; Toxoplasma gondii, Fig S2 source data, read-out: T. gondii (EC50, Fig S2 source data)): 18.5 nM
2 | COc1ccc(NC(=O)N2CCCCN3[C@H](CO)[C@H](c4ccc(C#Cc5ccccc5)cc4)[C@@H]3C2)cc1 [BRD3444] | 0.5 and 0.2 and 1.9 | 1.087 and 0.00000000 and 9.1 | 0 | 5 and 0 | 12 | 55.84 and 108.4 and 18.78 and 55.57 and 227.1 and 49.46 and 37.83 and 273.6 and 101.6 and 179.3 and 249.8 and 34.55 and 88.71 and 51.38 and 34.99 and 140.8 and 42.55 and 30.36 and 52.48 and 90.45 | 20.97 and 95.37 and 274.5 and 251.3 and 190.7 and 326.2 and 209.9 and 125.4 and 65.68 and 59.54 and 81.3 and 20.04 and 43.73 and 427 and 253.3 and 87.22 and 217.7 and 114.5 and 214.1 and 137.7 | significantly diminished cyst size | 0.02885 | 28.9 | 29 | 28 | 28.9 |  |  | 
3 | COc1ccc(NC(=O)N2CCCCN3[C@H](CN(C)C)[C@H](c4ccc(C#Cc5ccccc5)cc4)[C@@H]3C2)cc1 [BRD7929] | 1.0 and 0.2 and 1.9 | 2.174 and 0.37 and 0.00000000 | 0 | 0 | 13 | 70.79 and 76.24 and 90.26 and 38.16 and 85.34 and 130.5 and 42.83 and 30.86 and 19.37 and 49.32 and 117.9 and 50.48 and 21.2 and 120.5 and 75.85 and 64.97 and 70.16 and 108.7 and 69.23 and 113 | 112.8 and 142 and 65 and 40.33 and 94.48 and 106.3 and 167.8 and 104.7 and 129.7 and 105.6 and 65.07 and 56.59 and 80.88 and 43.39 and 143.9 and 81.69 and 71.88 and 171.2 and 68.84 and 66.51 | significantly diminished cyst size |  | 23 | 23 | 22 |  | only partially reduced growth | 98 | growth inhibition of ex vivo bradyzoites ([1]; 3×EC90, constant treatment): 99%; effect after washout ([1]; 3×EC90, short-term (4 h) treatment then washout): sustained following washout; growth inhibition of ex vivo bradyzoites ([1]; EC90, constant treatment): 93%; Ex vivo bradyzoite plaques, normalised to DMSO = 100 ([1]; Washout, EC50 concentration, Fig 5I): 66.67 and 75.15 and 100; Ex vivo bradyzoite plaques, normalised to DMSO = 100 ([1]; Washout, EC90 concentration, Fig 5I): 83.91; EC50 log inhib vs normalized response [5]: 0.0226; 3XEC90 ([5]; Fig 6A source data): 293.00; EC50 ([5]; ME49-FLuc, 10-point dose-response, two biological replicates, listed as BR7929, read-out: EC50, T. gondii tachyzoite growth): 22.6 nM; EC50 ([5]; Toxoplasma gondii, Fig 6A source data, in vitro tachyzoites, read-out: EC50): 23 nM; EC90 ([5]; Toxoplasma gondii, Fig 6A source data, in vitro tachyzoites, read-out: EC90): 98 nM; 3xEC90, tachyzoite growth ([5]; three times EC90): 0.293 µM
4 | COc1ccc(NC(=O)N2CCCCN3[C@H](CN(C)S(C)(=O)=O)[C@H](c4ccc(C#Cc5ccccc5)cc4)[C@@H]3C2)cc1 [BRD8494] | 0.5 and 0.2 and 1.9 | 1.087 and 0.74 and 4.5 | 0 | 0 | 26 | 46.64 and 167.1 and 52.11 and 128.7 and 180.9 and 64.9 and 103 and 36.82 and 65.28 and 41.9 and 105.7 and 87.22 and 144.1 and 114.5 and 214.1 and 103.8 and 343.4 and 159.3 and 37.35 and 133.8 | 112 and 360 and 182.2 and 110.4 and 32.16 and 37.14 and 75.73 and 23.46 and 145.9 and 108.1 and 145.1 and 279 and 170.3 and 246.7 and 83.16 and 29.6 and 216.4 and 92.48 and 64.36 and 16.16 | significantly diminished cyst size | 0.03476 | 34.8 | 35 | 34 | 34.8 | did not inhibit the growth | 95 | Ex vivo bradyzoite plaques, normalised to DMSO = 100 ([1]; Constant, EC50 concentration, Fig 5J): 100 and 95.62 and 97.45; growth of ex vivo bradyzoites at higher concentrations ([1]; EC90 and 3×EC90, constant treatment): nearly eliminated growth; Ex vivo bradyzoite plaques, normalised to DMSO = 100 ([1]; Washout, 3xEC90 concentration, Fig 5J): 97.62 and 100; Ex vivo bradyzoite plaques, normalised to DMSO = 100 ([1]; Washout, EC50 concentration, Fig 5J): 100 and 96.6 and 91.18; Ex vivo bradyzoite plaques, normalised to DMSO = 100 ([1]; Washout, EC90 concentration, Fig 5J): 100
